Measured values published in ChEMBL document CHEMBL3758149, “3-(Piperidin-4-ylmethoxy)pyridine Containing Compounds Are Potent Inhibitors of Lysine Specific Demethylase 1” (J Med Chem, 2016).

target: T1, Lysine-specific histone demethylase 1A (Homo sapiens, UniProt O60341)

Row | Compound | Ki [µM]
1 | Cc1ccc(-c2ncc(OCc3ccccc3)cc2-c2ccc(C#N)cc2)cc1 | > 50
2 | Cc1ccc(-c2ncc(OCC3CCNCC3)cc2-c2ccc(C(=O)NC3CC3)cc2)cc1 | > 50
3 | Cc1ccc(-c2ncc(OCC3CCNCC3)cc2-c2ccc(C(=O)O)cc2)cc1 | > 50
4 | Cc1ccc(-c2ncc(O)cc2-c2ccc(C#N)cc2)cc1 | > 50
5 | Cc1ccc(-c2ncc(OCC3CCNCC3)cc2-c2ccc(C(=O)N3CCOCC3)cc2)cc1 | > 50
6 | C#Cc1ccc(-c2cc(OCC3CCNCC3)cnc2-c2ccc(C)cc2)cc1 | > 50
7 | c1ccc(-c2cc(OCC3CCNCC3)cnc2-c2ccccc2)cc1 | > 50
8 | Cc1ccc(-c2ncc(OCC3CCNCC3)cc2-c2ccc(CN3CCCCC3)cc2)cc1 | > 50
9 | Cc1ccc(-c2ncc(OCC3CCNCC3)cc2-c2ccc(CO)cc2)cc1 | > 50

The next lines start with the values.

Row | Ki [µM] | Compound
10 | 0.54 | N#Cc1ccc(-c2nc(OCC3CCNCC3)cnc2-c2ccc(Br)cc2)cc1
11 | > 50 | Cc1ccc(-c2ncc(OCC3CCNCC3)cc2-c2ccc(C(=O)N3CCCCC3)cc2)cc1
12 | 16.5 | N#Cc1ccc(-c2ncc(OCC3CCNCC3)nc2-c2ccc(Br)cc2)cc1
13 | 26.2 | Brc1ccc(-c2ncc(OCC3CCNCC3)nc2-c2ccc(Br)cc2)cc1
14 | > 50 | c1ccc(-c2ccc(OCC3CCNCC3)cn2)cc1
15 | 9.1 | N#Cc1ccc(-c2ncc(OCC3CCNCC3)nc2-c2ccc(C#N)cc2)cc1
16 | > 50 | Cc1ccc(-c2ncc(OCC3CCNCC3)cc2-c2ccc(C(=O)N3CCNCC3)cc2)cc1

target: T2, Amine oxidase [flavin-containing] A (Homo sapiens, UniProt P21397)
T2 sequence (P21397 whole entry): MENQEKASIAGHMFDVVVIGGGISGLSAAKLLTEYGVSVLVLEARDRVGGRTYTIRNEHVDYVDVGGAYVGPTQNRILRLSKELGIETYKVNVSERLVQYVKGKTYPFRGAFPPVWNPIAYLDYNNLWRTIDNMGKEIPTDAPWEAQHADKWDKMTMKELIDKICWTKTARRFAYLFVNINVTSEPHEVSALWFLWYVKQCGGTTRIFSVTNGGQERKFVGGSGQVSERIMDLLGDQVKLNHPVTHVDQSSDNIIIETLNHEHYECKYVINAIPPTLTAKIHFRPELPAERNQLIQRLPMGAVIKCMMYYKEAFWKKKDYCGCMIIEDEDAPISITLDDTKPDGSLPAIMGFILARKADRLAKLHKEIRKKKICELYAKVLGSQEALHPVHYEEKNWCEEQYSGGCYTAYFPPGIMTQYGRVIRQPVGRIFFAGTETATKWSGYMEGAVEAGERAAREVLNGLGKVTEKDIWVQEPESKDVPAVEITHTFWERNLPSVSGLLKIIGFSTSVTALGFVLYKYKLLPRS
Description: Inhibition of recombinant human MAO-A after 60 mins MAO-glo assay

Row | Compound | Ki [µM]
17 | Cc1ccc(-c2ncc(OCC3CCNCC3)cc2-c2ccc(C#N)cc2)cc1 | > 50
18 | N#Cc1ccc(-c2cc(OCC3CCNCC3)cnc2-c2ccccc2)cc1 | > 50

Continued, values first:

Row | Ki [µM] | Compound
19 | > 50 | N#Cc1ccc(-c2cc(OCC3CCNCC3)cnc2-c2ccc(C(F)(F)F)cc2)cc1
20 | > 50 | N#Cc1ccc(-c2cc(OCC3CCNCC3)cnc2-c2ccc(OC(F)(F)F)cc2)cc1

target: T1, Lysine-specific histone demethylase 1A; remark: another data set of the same source

Row | IC50 [µM] | Compound
21 | 0.077 | CN1CCN(C(=O)CN[C@H]2C[C@@H]2c2ccc(-c3ccc(F)nc3)cc2)CC1 (relative stereo)
